Results published in patent publication US9126999B2, “Tetrahydropyrazolopyrimidine compounds” (EISAI R&D MANAGEMENT CO., LTD., priority 2012, dated 2015).
Read-outs that look alike come from different tables or passages of the source.

What was measured:
Human TLR8 = molecular target: T1, Human TLR8 (Homo sapiens, UniProt Q9NR97); assay: HEK-293 NF-kappaB luciferase reporter assay, CL097 stimulus; type: cell-based; settings: human TLR8 in the HEK-293 assay format; read-out: HEK/TLR8 IC50
T1 construct: host or cells: HEK-293 stably expressing human TLR8, then transfected with pNiFty2(NF-kappaB)-luciferase
T1 sequence (Q9NR97 27-1041): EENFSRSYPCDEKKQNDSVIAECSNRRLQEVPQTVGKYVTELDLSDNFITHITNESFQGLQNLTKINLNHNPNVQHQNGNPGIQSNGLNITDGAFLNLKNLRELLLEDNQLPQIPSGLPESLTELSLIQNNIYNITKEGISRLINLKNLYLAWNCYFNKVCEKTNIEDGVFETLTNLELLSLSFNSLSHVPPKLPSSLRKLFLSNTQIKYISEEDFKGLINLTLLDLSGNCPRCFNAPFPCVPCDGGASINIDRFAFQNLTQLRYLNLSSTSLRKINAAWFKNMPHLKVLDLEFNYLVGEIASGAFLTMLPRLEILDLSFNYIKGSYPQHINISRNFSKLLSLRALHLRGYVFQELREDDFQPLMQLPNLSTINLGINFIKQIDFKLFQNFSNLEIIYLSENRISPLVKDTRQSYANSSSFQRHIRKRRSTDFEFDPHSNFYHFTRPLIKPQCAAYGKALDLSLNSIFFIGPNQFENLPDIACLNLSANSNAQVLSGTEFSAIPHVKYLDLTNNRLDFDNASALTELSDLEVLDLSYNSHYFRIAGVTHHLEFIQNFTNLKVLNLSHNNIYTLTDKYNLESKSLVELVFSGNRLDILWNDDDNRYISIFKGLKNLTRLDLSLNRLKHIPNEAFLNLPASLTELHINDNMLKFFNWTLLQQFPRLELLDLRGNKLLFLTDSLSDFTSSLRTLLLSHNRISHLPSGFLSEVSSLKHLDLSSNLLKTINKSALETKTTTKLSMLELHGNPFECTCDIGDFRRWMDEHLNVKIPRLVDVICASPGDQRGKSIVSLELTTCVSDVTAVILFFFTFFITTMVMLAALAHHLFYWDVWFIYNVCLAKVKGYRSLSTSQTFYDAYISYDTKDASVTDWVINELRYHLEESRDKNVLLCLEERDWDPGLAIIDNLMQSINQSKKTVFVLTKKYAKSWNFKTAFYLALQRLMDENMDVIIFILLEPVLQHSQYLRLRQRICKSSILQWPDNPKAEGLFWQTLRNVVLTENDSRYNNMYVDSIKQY
From the text: In vitro pharmacology: HEK-293 cells (ATCC) were engineered to stably express a NF-kappaB transcription factor inducible E-selectin (ELAM-1) luciferase reporter derived from the plasmid pGL3 (Promega) containing base pairs −2241 bp to −254 bp from the promoter of the human E-selectin gene (Accession No. NM_000450). These cells were then subsequently engineered to stably and individually express human TLR4, TLR7 or TLR9 full-length ORF cDNAs. Human TLR4 cDNA (Accession No. NM_138554) was cloned into pcDNA 3.0 expression vector (Invitrogen). TLR4 transfected cells were also engineered to express human MD-2 co-receptor [MD-2 cDNA (Accession No. NM_015364) was cloned into the pEF-BOS vector] and were supplemented with 10 nM soluble CD14 (R&D Systems) in the media to optimize LPS responsiveness. Human TLR9 cDNA (Accession No. NM_017442) was cloned into the pBluescript II KS vector (Agilent). Human TLR7 cDNA (Accession No. NM_016562) was obtained from OriGene. HEK-293 cells stably expressing human TLR8 (Accession No. NM_138636) or mouse TLR7 (Accession No. NM_133211) were purchased from InvivoGen and were then stably transfected with pNiFty2(NF-kappaB)-luciferase reporter plasmid (InvivoGen). Each cell type was plated in Dulbecco's modified Eagle's medium (DMEM) containing 10% fetal bovine serum (FBS) at a density of 2.22×10^5 cells/ml into a 384-well plate and incubated for 2 days at 37° C., 5% CO2. Varying concentrations of antagonist compounds were then added. Cells were then incubated for another 30 minutes before adding the appropriate TLR agonist as follows (final concentrations indicated): lipopolysaccharide (LPS; Sigma) at 10 ng/ml for TLR4, CL097 (InvivoGen) at 3 ug/ml for human TLR7 and TLR8 and mouse TLR7, and CpG-2006-2A [sequence: […] (SEQ ID NO: 1) with phosphorothioate backbone, synthesized by Sigma-Aldrich] at 0.6 uM for TLR9.

Human TLR7/8 = test system: T2, Human TLR7/8; assay: Human PBMC cell-based assay, RNA-Ig (SL4-Ig) stimulus, cytokine ELISA
T2 construct: IC50; other: Hu PBMC; ligand RNA-Ig; analyte IL-6; analyte TNFα; ligand R848; IC50 against the RNA-Ig TLR7/8 stimulus; cytokine responses to RNA-Ig complexes in vitro; potency against the RNA-Ig TLR7/8 stimulus versus HCQ
Protocol: (§1) Briefly, 25 ml blood was diluted with 15 ml PBS (without Ca^2+, Mg^2+) in a 50 ml conical tube, and 12 ml Histopaque was underlaid using a spinal needle. Tubes were centrifuged for 45 minutes at 1200 rpm (350×g), and PBMC were collected from the buffy coat. Cells were then washed twice in PBS, and red blood cells were lysed by suspension in 5 ml ammonium chloride solution (1× Red Blood Cell Lysis Buffer, eBioscience) for 5 minutes at room temperature.
Antagonist compounds solubilized and serial diluted in 100% DMSO were added in triplicate to cells to yield a final concentration of 0.1% DMSO (v/v). Hydroxychloroquine (Acros Organics) solubilized and serial diluted in PBS was added in triplicate to cells. […] The resulting “RNA-Ig” stimulus was incubated at room temperature for 15-30 minutes before adding to cells. PBMC were incubated with the various TLR agonists for 20 hours at 37° C., 5% CO2. Cell culture supernatants were collected, and levels of various human cytokines were assessed as indicated by standard ELISA procedure according to the manufacturer's recommended protocol (BD Biosciences, Inc., San Diego, Calif.).

Human TLR9 = molecular target: T3, Human TLR9 (Homo sapiens, UniProt Q9NR96); assay: Human PBMC cell-based assay, CpG-ODN stimulus, IL-6 ELISA; design: endogenous in cells; host or cells: primary human PBMC from healthy donor blood; settings: Hu PBMC; ligand CpG-ODN; analyte IL-6
T3 sequence (Q9NR96 26-1032): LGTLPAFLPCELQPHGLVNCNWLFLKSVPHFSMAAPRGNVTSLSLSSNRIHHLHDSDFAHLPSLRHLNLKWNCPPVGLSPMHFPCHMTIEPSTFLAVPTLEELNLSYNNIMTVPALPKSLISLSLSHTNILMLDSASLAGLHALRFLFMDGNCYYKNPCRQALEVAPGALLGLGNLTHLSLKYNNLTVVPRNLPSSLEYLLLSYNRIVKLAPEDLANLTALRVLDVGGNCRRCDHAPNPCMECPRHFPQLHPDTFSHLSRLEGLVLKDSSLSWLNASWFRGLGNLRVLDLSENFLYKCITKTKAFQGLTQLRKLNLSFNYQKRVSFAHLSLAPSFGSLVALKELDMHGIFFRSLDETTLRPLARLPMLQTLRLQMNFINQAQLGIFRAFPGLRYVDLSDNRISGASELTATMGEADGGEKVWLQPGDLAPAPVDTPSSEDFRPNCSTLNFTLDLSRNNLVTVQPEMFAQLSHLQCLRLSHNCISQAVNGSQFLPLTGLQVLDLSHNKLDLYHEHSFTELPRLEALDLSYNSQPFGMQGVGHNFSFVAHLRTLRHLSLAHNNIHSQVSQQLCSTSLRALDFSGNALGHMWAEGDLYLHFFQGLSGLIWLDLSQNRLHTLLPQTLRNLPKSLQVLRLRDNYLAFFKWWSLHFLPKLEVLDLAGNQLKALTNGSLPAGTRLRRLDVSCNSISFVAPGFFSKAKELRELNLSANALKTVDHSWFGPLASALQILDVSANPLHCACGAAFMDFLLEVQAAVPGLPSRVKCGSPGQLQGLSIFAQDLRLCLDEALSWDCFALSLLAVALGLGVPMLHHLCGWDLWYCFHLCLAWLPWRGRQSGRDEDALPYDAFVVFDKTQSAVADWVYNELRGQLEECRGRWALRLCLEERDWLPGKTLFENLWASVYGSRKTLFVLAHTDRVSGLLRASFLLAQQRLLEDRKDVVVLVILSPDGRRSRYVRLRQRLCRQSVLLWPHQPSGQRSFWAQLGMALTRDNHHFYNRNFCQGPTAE
Protocol: as §1, with “Human peripheral blood mononuclear cells (PBMC) were isolated from freshly-drawn heparinized (10 USP units/ml, Hospira, Lakeforest, Ill.) healthy donor whole blood by density gradient (Histopaque® 1077, Sigma, Inc., St. Louis, Mo.). Briefly,” for “Briefly,”, “temperature. […]” for “temperature.”
(§2) Antagonist compounds solubilized and serial diluted in 100% DMSO were added in triplicate to cells to yield a final concentration of 0.1% DMSO (v/v). […] Cell culture supernatants were collected, and levels of various human cytokines were assessed as indicated by standard ELISA procedure according to the manufacturer's recommended protocol (BD Biosciences, Inc., San Diego, Calif.).

Human TLR4 = Human TLR4 (Homo sapiens, UniProt O00206); assay: Human PBMC cell-based assay, LPS stimulus, IL-6 ELISA; design: endogenous in cells; host or cells: primary human PBMC from healthy donor blood; settings: Hu PBMC; ligand LPS; analyte IL-6
Protocol: as §1, with “Human peripheral blood mononuclear cells (PBMC) were isolated from freshly-drawn heparinized (10 USP units/ml, Hospira, Lakeforest, Ill.) healthy donor whole blood by density gradient (Histopaque® 1077, Sigma, Inc., St. Louis, Mo.). Briefly,” for “Briefly,”, “temperature. […]” for “temperature.”
as §2

[1] = Human PBMC IL-6 Inhibition (SL4-Ig Ligand), read-out: Human PBMC IC50

Sequence of Human TLR4 (O00206 24-839): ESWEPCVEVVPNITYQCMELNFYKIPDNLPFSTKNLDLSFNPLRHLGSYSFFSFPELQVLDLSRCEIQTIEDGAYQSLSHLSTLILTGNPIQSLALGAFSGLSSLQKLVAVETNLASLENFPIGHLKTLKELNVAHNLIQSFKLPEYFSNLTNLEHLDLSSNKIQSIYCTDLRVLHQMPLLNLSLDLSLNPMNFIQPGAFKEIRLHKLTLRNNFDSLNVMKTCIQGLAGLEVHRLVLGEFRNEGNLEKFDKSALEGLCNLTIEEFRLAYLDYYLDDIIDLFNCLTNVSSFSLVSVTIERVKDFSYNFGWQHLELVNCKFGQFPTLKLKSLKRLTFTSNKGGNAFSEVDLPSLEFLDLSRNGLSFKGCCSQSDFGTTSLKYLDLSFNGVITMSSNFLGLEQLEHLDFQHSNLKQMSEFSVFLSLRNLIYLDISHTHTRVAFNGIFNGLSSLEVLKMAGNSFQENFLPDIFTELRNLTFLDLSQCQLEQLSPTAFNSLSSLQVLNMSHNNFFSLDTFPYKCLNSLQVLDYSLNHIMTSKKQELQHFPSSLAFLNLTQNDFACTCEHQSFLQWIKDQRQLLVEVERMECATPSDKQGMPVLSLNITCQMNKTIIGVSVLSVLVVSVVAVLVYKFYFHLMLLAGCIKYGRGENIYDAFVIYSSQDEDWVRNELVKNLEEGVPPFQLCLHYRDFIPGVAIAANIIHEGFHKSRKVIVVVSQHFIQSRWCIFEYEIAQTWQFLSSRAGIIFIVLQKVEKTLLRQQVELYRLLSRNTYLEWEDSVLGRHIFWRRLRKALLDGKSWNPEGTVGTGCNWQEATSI
Sequence of Human TLR4 (Q9Y6Y9 19-160 partner): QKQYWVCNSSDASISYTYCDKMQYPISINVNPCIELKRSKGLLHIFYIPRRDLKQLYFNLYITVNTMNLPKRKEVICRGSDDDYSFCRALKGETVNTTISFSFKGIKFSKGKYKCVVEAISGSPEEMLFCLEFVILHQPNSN

Row | IC50 (Human TLR8) [nM] | IC50 (Human TLR7/8; [1]) [nM] | IC50 (Human TLR9) [nM] | IC50 (Human TLR7/8; Hu PBMC, ligand RNA-Ig, analyte IL-6, read-out: IC50) [nM] | IC50 (Human TLR7/8; read-out: IC50 against the RNA-Ig TLR7/8 stimulus) [nM] | IC50 (Human TLR4) [nM] | Compound
1 | 300 | 414 |  |  |  |  | COc1cc(-c2cc3n(n2)C(C(F)(F)F)CC(c2ccc(OC)c(OC)c2)N3)ccn1 (racemic) [ER-886434]
2 | 330 | 744 |  |  |  |  | Cc1nn(C)cc1C1CC(C(F)(F)F)n2nc(-c3ccc4c(cnn4C)c3C)cc2N1 (stereo not drawn) [ER-892900]
3 | 220 | 160 |  |  |  |  | COc1ccc([C@H]2C[C@@H](C(F)(F)F)n3nc(-c4ccc(C(=O)N5CCNCC5)cc4)cc3N2)cc1OC [ER-892924]
4 | 220 | 2110 |  |  |  |  | Cc1nn(C)cc1[C@H]1C[C@@H](C(F)(F)F)n2nc(-c3ccc4c(cnn4C)c3C)cc2N1 [ER-893987]
5 |  |  | 150 to 300 | 1000 to 2000 | ~1500 | > 10000 | CCN(CCO)CCCC(C)Nc1ccnc2cc(Cl)ccc12 (stereo not drawn) [HCQ, Hydroxychloroquine, reference compound]
